Measurements from patent US6187807A, “Methods of use and compositions of (S) (-)-amisulpride” (Sanofi-Synthelabo, priority 1999, dated 2001).

Legend:
[1] = test system: apomorphine-induced hypermotility; experiment: Antagonism of apomorphine-induced hypermotility; conditions: Rattus norvegicus, ip, 0.5 h, read-out: Antagonism of apomorphine-induced hypermotility (ED50)
Text: These experimental conditions produce low baseline locomotor activity suitable for assessing increases in locomotion produced by apomorphine.

in vivo [2] = conditions: rat, ip, 20 min recording, 30 min after drug, read-out: Decrease in spontaneous locomotor activity (ED50)
Method: (§1) The propensity of the drugs to induce extrapyramidal side effects was assessed by measuring their potential to induce catalepsy and to antagonize apomorphine-induced stereotyped behaviour and the sedative potential of the drugs was evaluated by their capacity to decrease spontaneous locomotor activity in the rat.
Spontaneous locomotor activity was measured for 20 min immediately after rats were placed in the activity cages, 30 min after drug treatment.

[3] = test system: d-amphetamine-induced hypermotility; experiment: Antagonism of d-amphetamine-induced hypermotility; conditions: for ED50: Rattus norvegicus, ip, 0.5 h, read-out: Antagonism of d-amphetamine-induced hypermotility (ED50)
Method: d-Amphetamine-induced hyperactivity was recorded for 20 min, 30 min after injection of d-amphetamine (2 mg/kg, ip) immediately after placing rats in the activity cages without habituation according to Gh.

in vivo [4] = conditions: rat, ip, measured 2 hours and 4 hours after drug, read-out: Induction of catalepsy (ED50)
Method: as §1
The occurrence of catalepsy in rats was assessed using the four-cork test. This measurement was performed by placing each paw of the rat on a 2.5 cm high cork (diameter 1.2 cm). Distance between contralateral corks was 8 cm and between ipsilateral corks 13 cm. Catalepsy time was measured for a maximum of 2 min at 2 hours, and 4 hours after ip drug treatment.

[5] = Antagonism of apomorphine-induced stereotypies; assay type: in vivo; conditions: rat, in vivo; ip; apomorphine 0.5 mg/kg sc, 30 min after drug
Method: as §1
(§2) For scoring stereotypies, the following scale was used: 0: asleep; 1: awake; quiet; 2: locomotion, head bobbing; 3: sniffing; 4: licking; 5: chewing/gnawing. For each rat, a global score was calculated by averaging the 3 stereotypy scores obtained at 10 min intervals.

[6] = test system: apomorphine-induced stereotypies; experiment: Antagonism of apomorphine-induced stereotypies; assay type: in vivo; conditions: comparison in words
Method: as §1, §2

Compound	ED50 [1] [mg/kg]	ED50 (in vivo [2]) [mg/kg]	ED50 [3] [mg/kg]	ED50 (in vivo [4]) [mg/kg]	ED50 [5] [mg/kg]	Potency at antagonizing apomorphine-induced stereotypies, (S)(-)-amisulpride compared with (R,S)-amisulpride [6]	Potency in tests predictive of antipsychotic activity, compared with (R,S)-amisulpride ([3]; antagonism of apomorphine or amphetamine hyperlocomotion, in words)
CCN1CCCC1CNC(=O)c1cc(S(=O)(=O)CC)c(N)cc1OC (racemic) [(R,S)-amisulpride, reference compound]	30	100	3	> 100	115	equipotent	–
CCN1CCC[C@H]1CNC(=O)c1cc(S(=O)(=O)CC)c(N)cc1OC [(S)(-)-amisulpride, (S)-(-)-4-amino-N-[(1-ethylpyrrolidin-2-yl)methyl]-5-(ethylsulfonyl)-2-methoxybenzamide]	15	100	1.2	> 100	100	equipotent	twice as potent
